What was measured:
Experiment in all cases: relative viability (nuclei count vs DMSO), 5 days (fraction); higher = more cells survive
[1] = compound: Cc1sc2c(c1C)C(c1ccc(Cl)cc1)=N[C@@H](CC(=O)OC(C)(C)C)c1nnc(C)n1-2 [JQ1]
How it was run: (§1)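 On vehicle-anchored 1536-well plates, lung cancer cell lines held overnight at 37 °C were pinned with five library-drug doses (not always all listed) spaced by √10. With no medium change over 5 days, they were then fixed, permeabilised and Hoechst-stained in one step and imaged at 4×. MetaXpress counted nuclei, and viability is the median across plates of treated-well over vehicle-well nuclei. Acceptance needed control CV below 25% and at least one doubling.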

[2] = compound: O=c1[nH]c2ccccc2n1C1CCN(CCCC(c2ccc(F)cc2)c2ccc(F)cc2)CC1 [Pimozide]
How it was run: as §1

[3] = compound: CC(=O)O[C@@]12CO[C@@H]1C[C@H](O)[C@@]1(C)C(=O)[C@H](O)C3=C(C)[C@@H](OC(=O)[C@H](O)[C@@H](NC(=O)OC(C)(C)C)c4ccccc4)C[C@@](O)([C@@H](OC(=O)c4ccccc4)[C@H]21)C3(C)C [Docetaxel]
How it was run: as §1

[4] = compound: Nc1ccn([C@@H]2O[C@H](CO)[C@@H](O)[C@@H]2O)c(=O)n1 [Cytarabine]
How it was run: as §1

[5] = compound: O=C(O)CCCCC(CCSCc1ccccc1)SCc1ccccc1 [CPI-613]
How it was run: as §1

[6] = compound: COc1cc2nccc(Oc3ccc(NC(=O)Nc4cc(C)on4)c(Cl)c3)c2cc1OC [Tivozanib]
How it was run: as §1

[7] = compound: Cc1cnc(-c2cnc(NCCNc3ccc(C#N)cn3)nc2-c2ccc(Cl)cc2Cl)[nH]1
How it was run: as §1

Cell Line | relative viability ([1]; 0.04 µM) | relative viability ([1]; 0.1265 µM) | relative viability ([1]; 0.4 µM) | relative viability ([1]; 1.265 µM) | relative viability ([1]; 4 µM) | relative viability ([2]; 0.08 µM) | relative viability ([2]; 0.253 µM) | relative viability ([2]; 0.8 µM) | relative viability ([2]; 2.53 µM) | relative viability ([2]; 8 µM) | relative viability ([3]; 0.0002 µM) | relative viability ([3]; 0.000632 µM) | relative viability ([3]; 0.002 µM) | relative viability ([3]; 0.006325 µM) | relative viability ([3]; 0.02 µM) | relative viability ([4]; 0.005 µM) | relative viability ([4]; 0.01581 µM) | relative viability ([4]; 0.05 µM) | relative viability ([4]; 0.1581 µM) | relative viability ([4]; 0.5 µM) | relative viability ([5]; 5 µM) | relative viability ([5]; 15.81 µM) | relative viability ([5]; 50 µM) | relative viability ([5]; 158.11 µM) | relative viability ([5]; 500 µM) | relative viability ([6]; 0.005 µM) | relative viability ([6]; 0.01581 µM) | relative viability ([6]; 0.05 µM) | relative viability ([6]; 0.1581 µM) | relative viability ([6]; 0.5 µM) | relative viability ([7]; 0.08 µM) | relative viability ([7]; 0.8 µM) | relative viability ([7]; 2.53 µM) | relative viability ([7]; 0.253 µM)
201T | 0.97 | 0.561 | 0.865 | 0.458 | 0.386 | 0.98 | 0.977 | 0.965 | 0.936 | 0.832 | 0.977 | 0.963 | 0.657 | 0.469 | 0.369 | 0.981 | 1.03 | 0.977 | 0.873 | 0.787 | 0.97 | 0.909 | 0.968 | 0.756 | 0.862 | 1.01 | 1.01 | 1.03 | 0.912 | 0.991 | 1.01 | 0.966 | 0.992 | 
A549 | 0.953 | 0.912 | 0.909 | 0.686 | 0.363 | 0.96 | 0.89 | 0.981 | 0.952 | 0.874 | 0.914 | 0.68 | 0.0907 | 0.0644 | 0.0347 | 0.861 | 0.682 | 0.391 | 0.101 | 0.0441 | 0.973 | 0.911 | 0.978 | 0.624 | 0.647 | 0.939 | 0.99 | 0.994 | 0.942 | 0.944 | 1.06 | 0.945 | 0.958 | 0.957
A-427 | 0.902 | 0.879 | 0.91 | 0.653 | 0.504 | 0.952 | 0.967 | 0.94 | 0.882 | 0.845 | 0.931 | 0.952 | 0.439 | 0.281 | 0.171 | 0.823 | 0.449 | 0.329 | 0.214 | 0.204 | 1 | 0.898 | 0.939 | 0.772 | 0.157 | 0.98 | 1 | 1.03 | 0.902 | 0.833 | 1.04 | 0.959 | 0.948 | 0.852
ABC-1 | 0.947 | 0.657 | 0.691 | 0.572 | 0.444 | 0.811 | 1.05 | 0.959 | 0.897 | 0.698 | 0.853 | 0.817 | 0.472 | 0.343 | 0.24 | 0.907 | 0.883 | 0.808 | 0.732 | 0.582 | 1.05 | 0.802 | 1.04 | 0.469 | 0.226 | 0.849 | 0.919 | 1 | 0.793 | 0.412 | 0.881 | 0.896 | 0.904 | 0.682
BEN | 0.809 | 0.848 | 0.594 | 0.44 | 0.387 | 0.96 | 1.07 | 0.975 | 0.925 | 1.04 | 0.951 | 1.01 | 0.593 | 0.291 | 0.198 | 0.892 | 0.794 | 0.617 | 0.473 | 0.335 | 0.988 | 0.843 | 0.96 | 0.799 | 0.811 | 0.922 | 1.05 | 1.02 |  | 0.889 | 1.05 | 0.933 | 0.984 | 0.991
CAL-12T | 0.867 | 0.818 | 0.798 | 0.321 | 0.293 | 0.951 | 0.936 | 0.909 | 0.867 | 0.832 | 0.791 | 0.418 | 0.302 | 0.21 | 0.178 | 0.983 | 0.909 | 0.789 | 0.397 | 0.255 | 0.877 | 0.829 | 0.822 | 0.423 | 0.235 | 0.857 | 0.941 | 0.994 | 0.698 | 0.959 | 1.03 | 0.899 | 0.927 | 0.933
COR-L23 | 0.965 | 0.848 | 1.02 | 0.54 | 0.549 | 1.08 | 1.03 | 0.949 | 0.981 | 0.912 | 0.963 | 0.904 | 0.514 | 0.184 | 0.141 | 1.06 | 0.874 | 0.656 | 0.234 | 0.172 | 1 | 0.946 | 1.03 | 0.415 | 0.0149 | 1.01 | 0.989 | 1.06 | 1.09 | 0.841 | 1.08 | 1.04 | 0.934 | 0.897
COR-L 105 | 0.684 | 0.607 | 0.38 | 0.352 | 0.33 |  | 1.1 | 0.907 | 0.862 | 0.838 | 0.86 | 0.811 | 0.536 | 0.418 | 0.302 | 0.905 | 0.81 | 0.627 | 0.448 | 0.386 | 0.853 | 0.872 | 0.839 | 0.364 | 0.29 | 0.901 | 0.914 | 0.93 | 0.843 | 0.859 | 0.991 | 0.868 | 0.563 | 0.887
Calu-6 | 0.951 | 0.804 | 0.933 | 0.593 | 0.425 | 1.05 | 1.01 | 0.974 | 0.991 | 0.897 | 1.01 | 0.892 | 0.28 | 0.157 | 0.109 | 0.93 | 0.865 | 0.714 | 0.462 | 0.313 | 0.978 | 0.999 | 0.913 | 0.722 | 0.545 | 0.955 | 1.02 | 1.04 | 1.08 | 0.943 | 1 | 0.969 | 0.908 | 0.951
